Experimental data taken from patent US20060281700A1, “SYNERGISTIC MODULATION OF FLT3 KINASE USING AMINOPYRIMIDINES KINASE MODULATORS” (priority 2005, published 2006).

How the values were obtained:
[1] = target: T1, isolated kinase domain of the human FLT3 receptor (a.a. 571-993) (Homo sapiens, UniProt P36888); assay: FLT3 Fluorescence Polarization Kinase Assay; type: biochemical; details: 10 nM FLT3 571-993, 150 uM ATP; uncertainty ±10%
T1 construct: isolated kinase domain of the human FLT3 receptor (a.a. 571-993)
T1 sequence (P36888 571-993): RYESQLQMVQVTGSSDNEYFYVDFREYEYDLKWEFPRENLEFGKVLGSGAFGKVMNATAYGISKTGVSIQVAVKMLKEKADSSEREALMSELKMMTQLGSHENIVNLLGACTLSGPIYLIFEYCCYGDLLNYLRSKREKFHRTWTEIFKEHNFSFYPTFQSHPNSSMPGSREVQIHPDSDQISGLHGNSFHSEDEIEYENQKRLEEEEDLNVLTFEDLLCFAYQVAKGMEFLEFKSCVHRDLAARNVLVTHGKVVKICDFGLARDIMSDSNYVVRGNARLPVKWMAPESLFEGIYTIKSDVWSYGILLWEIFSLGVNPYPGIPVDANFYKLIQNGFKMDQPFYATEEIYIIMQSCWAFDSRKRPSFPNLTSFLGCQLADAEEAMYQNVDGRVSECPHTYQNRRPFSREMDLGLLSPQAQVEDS
Procedure: FLT3 Fluorescence Polarization Kinase Assay
To determine the activity of the FLT3 inhibitors of Formula I′ in an in vitro kinase assay, inhibition of the isolated kinase domain of the human FLT3 receptor (a.a. 571-993) was performed using the following fluorescence polarization (FP) protocol. The FLT3 FP assay utilizes the fluorescein-labeled phosphopeptide and the anti-phosphotyrosine antibody included in the Panvera Phospho-Tyrosine Kinase Kit (Green) supplied by Invitrogen. When FLT3 phosphorylates polyGlu4Tyr, the fluorescein-labeled phosphopeptide is displaced from the anti-phosphotyrosine antibody by the phosphorylated poly Glu4Tyr, thus decreasing the FP value. The FLT3 kinase reaction is incubated at room temperature for 30 minutes under the following conditions: 10 nM FLT3 571-993, 20 ug/mL poly Glu4Tyr, 150 uM ATP, 5 mM MgCl2, 1% compound in DMSO. The kinase reaction is stopped with the addition of EDTA. The fluorescein-labeled phosphopeptide and the anti-phosphotyrosine antibody are added and incubated for 30 minutes at room temperature.
All data points are an average of triplicate samples. Inhibition and IC50 data analysis was done with GraphPad Prism using a non-linear regression fit with a multiparamater, sigmoidal dose-response (variable slope) equation.

MV4-11 cells = assay: Inhibition of MV4-11 cell proliferation (CellTiterGlo, 72 hours); type: cell-based; details: Homo sapiens; 72 hours growth; uncertainty ±20%
Procedure: Inhibition Of MV4-11 and Baf3 Cell Proliferation
To assess the cellular potency of the FLT3 inhibitors of Formula I′, FLT3 specific growth inhibition was measured in the leukemic cell line MV4-11 (ATCC Number: CRL-9591). […] MV4-11 cells cannot grow and survive without active FLT3ITD.
To measure proliferation inhibition by test compounds, the luciferase based CellTiterGlo reagent (Promega), which quantifies total cell number based on total cellular ATP concentration, was used. Cells are plated at 10,000 cells per well in 100 ul of in RPMI media containing penn/strep, 10% FBS and 1 ng/ml GM-CSF or 1 ng/ml IL-3 for MV4-11 and Baf3 cells respectively.
Compound dilutions or 0.1% DMSO (vehicle control) are added to cells and the cells are allowed to grow for 72 hours at standard cell growth conditions (37° C., 5% CO2). For activity measurements in MV4-11 cells grown in 50% plasma, cells were plated at 10,000 cells per well in a 1:1 mixture of growth media and human plasma (final volume of 100 μL). To measure total cell growth an equal volume of CellTiterGlo reagent was added to each well, according to the manufacturer's instructions, and luminescence was quantified. Total cell growth was quantified as the difference in luminescent counts (relative light units, RLU) of cell number at Day 0 compared to total cell number at Day 3 (72 hours of growth and/or compound treatment). One hundred percent inhibition of growth is defined as an RLU equivalent to the Day 0 reading. Zero percent inhibition was defined as the RLU signal for the DMSO vehicle control at Day 3 of growth. All data points are an average of triplicate samples. […] Inhibition and IC50 data analysis was done with GraphPad Prism using a non-linear regression fit with a multiparamater, sigmoidal dose-response (variable slope) equation.
MV4-11 cells express the FLT3 internal tandem duplication mutation, and thus are entirely dependent upon FLT3 activity for growth. […] In contrast, the Baf3 cell proliferation is driven by the cytokine IL-3 and thus are used as a non-specific toxicity control for test compounds.

SMILES	IC50 [1] [nM]	IC50 (MV4-11 cells) [nM]
CC(C)c1ccc(NC(=O)NC2CCN(c3ncnc(N)c3/C=N/OCC(=O)N3CCOCC3)C2)cc1 (stereo not shown) [Number 29, 1-(1-{6-Amino-5-[(2-morpholin-4-yl-2-oxo-ethoxyimino)-methyl]-pyrimidin-4-yl}-pyrrolidin-3-yl)-3-(4-isopropyl-phenyl)-urea]	1200	856
CO/N=C/c1c(N)ncnc1N1CCC(NC(=O)Nc2ccc(OC3CCCC3)nc2)C1 (stereo not shown) [Number 21, 1-{1-[6-Amino-5-(methoxyimino-methyl)-pyrimidin-4-yl]-pyrrolidin-3-yl}-3-(6-cyclopentyloxy-pyridin-3-yl)-urea]	4500	249
CO/N=C/c1c(N)ncnc1N1CCC(CC(=O)Nc2ccc(C(C)C)cc2)CC1 [Number 7, 2-{1-[6-Amino-5-(methoxyimino-methyl)-pyrimidin-4-yl]-piperidin-4-yl}-N-(4-isopropyl-phenyl)-acetamide]	81	208
CO/N=C/c1c(N)ncnc1N1CCC(NC(=O)Nc2ccc(C3CCCCC3)cc2)C1 (stereo not shown) [Number 17, 1-{1-[6-Amino-5-(methoxyimino-methyl)-pyrimidin-4-yl]-pyrrolidin-3-yl}-3-(4-cyclohexyl-phenyl)-urea]	> 10000	386
CO/N=C/c1c(N)ncnc1N1CCC(NC(=O)Nc2ccc(N3CCOCC3)cc2)CC1 [Number 14, 1-{1-[6-Amino-5-(methoxyimino-methyl)-pyrimidin-4-yl]-piperidin-4-yl}-3-(4-morpholin-4-yl-phenyl)-urea]	880	1200
CO/N=C/c1c(N)ncnc1N1CCC(NC(=O)Nc2ccc(OC3CCC3)nc2)C1 (stereo not shown) [Number 11, 1-{1-[6-Amino-5-(methoxyimino-methyl)-pyrimidin-4-yl]-pyrrolidin-3-yl}-3-(6-cyclobutoxy-pyridin-3-yl)-urea]	160	398
CO/N=C/c1c(N)ncnc1N1CCC(CC(=O)Nc2ccc(C(C)C)cc2)C1 (stereo not shown) [Number 6, 2-{1-[6-Amino-5-(methoxyimino-methyl)-pyrimidin-4-yl]-pyrrolidin-3-yl}-N-(4-isopropyl-phenyl)-acetamide]	16	31
CO/N=C/c1c(N)ncnc1N1CCC(NC(=O)Nc2ccc(N3CCCC3)cc2)C1 (stereo not shown) [Number 20, 1-{1-[6-Amino-5-(methoxyimino-methyl)-pyrimidin-4-yl]-pyrrolidin-3-yl}-3-(4-pyrrolidin-1-yl-phenyl)-urea]	4500	491
CO/N=C/c1c(N)ncnc1N1CCC(NC(=O)Nc2ccc(OC(C)C)cc2)CC1 [Number 12, 1-{1-[6-Amino-5-(methoxyimino-methyl)-pyrimidin-4-yl]-piperidin-4-yl}-3-(4-isopropoxy-phenyl)-urea]	460	672
CO/N=C/c1c(N)ncnc1N1CCC(NC(=O)Nc2ccc(Cl)cc2)C1 (stereo not shown) [Number 18, 1-{1-[6-Amino-5-(methoxyimino-methyl)-pyrimidin-4-yl]-pyrrolidin-3-yl}-3-(4-chloro-phenyl)-urea]	2970	735
CC(C)Oc1ccc(NC(=O)OC2CCN(c3ncnc(N)c3/C=N/OCCCN(C)C)CC2)cc1 [Number 4, (4-Isopropoxy-phenyl)-carbamic acid 1-{6-amino-5-[(3-dimethylamino-propoxyimino)-methyl]-pyrimidin-4-yl}-piperidin-4-yl ester]	300	1400
CO/N=C/c1c(N)ncnc1N1CCC(NC(=O)Nc2ccc(N3CCOCC3)cc2)C1 (stereo not shown) [Number 10, 1-{1-[6-Amino-5-(methoxyimino-methyl)-pyrimidin-4-yl]-pyrrolidin-3-yl}-3-(4-morpholin-4-yl-phenyl)-urea]	1100	569
CO/N=C/c1c(N)ncnc1N1CCC(NC(=O)Nc2ccc(N3CCCCC3)cc2)CC1 [Number 13, 1-{1-[6-Amino-5-(methoxyimino-methyl)-pyrimidin-4-yl]-piperidin-4-yl}-3-(4-piperidin-1-yl-phenyl)-urea]	310	587
CO/N=C/c1c(N)ncnc1N1CCC(NC(=O)Nc2ccc(Oc3ccccc3)cc2)C1 (stereo not shown) [Number 19, 1-{1-[6-Amino-5-(methoxyimino-methyl)-pyrimidin-4-yl]-pyrrolidin-3-yl}-3-(4-phenoxy-phenyl)-urea]	2500	371
CO/N=C/c1c(N)ncnc1N1CCC(NC(=O)Nc2ccc(Cl)cc2)CC1 [Number 25, 1-{1-[6-Amino-5-(methoxyimino-methyl)-pyrimidin-4-yl]-piperidin-4-yl}-3-(4-chloro-phenyl)-urea]	34	890
CCNC(=O)NCCO/N=C/c1c(N)ncnc1N1CCC(NC(=O)Nc2ccc(C(C)C)cc2)C1 (stereo not shown) [Number 28, 1-[1-(6-Amino-5-{[2-(3-ethyl-ureido)-ethoxyimino]-methyl}-pyrimidin-4-yl)-pyrrolidin-3-yl]-3-(4-isopropyl-phenyl)-urea]	2700	498
CO/N=C/c1c(N)ncnc1N1CCC(NC(=O)Nc2ccc(OC3CCC3)nc2)CC1 [Number 15, 1-{1-[6-Amino-5-(methoxyimino-methyl)-pyrimidin-4-yl]-piperidin-4-yl}-3-(6-cyclobutoxy-pyridin-3-yl)-urea]	410	578
CO/N=C/c1c(N)ncnc1N1CCC(NC(=O)Nc2ccc(OC(C)C)cc2)C1 (stereo not shown) [Number 8, 1-{1-[6-Amino-5-(methoxyimino-methyl)-pyrimidin-4-yl]-pyrrolidin-3-yl}-3-(4-isopropoxy-phenyl)-urea]	290	455
CO/N=C/c1c(N)ncnc1N1CCC(OC(=O)Nc2ccc(OC(C)C)cc2)CC1 [Number 1, (4-Isopropoxy-phenyl)-carbamic acid 1-[6-amino-5-(methoxyimino-methyl)-pyrimidin-4-yl]-piperidin-4-yl ester]	150	740
CO/N=C/c1c(N)ncnc1N1CCC(OC(=O)Nc2ccc(C(C)C)cc2)CC1 [Number 5, (4-Isopropyl-phenyl)-carbamic acid 1-[6-amino-5-(methoxyimino-methyl)-pyrimidin-4-yl]-piperidin-4-yl ester]	29	11
CO/N=C/c1c(N)ncnc1N1CCC(NC(=O)Nc2ccc(OC3CCCC3)nc2)CC1 [Number 23, 1-{1-[6-Amino-5-(methoxyimino-methyl)-pyrimidin-4-yl]-piperidin-4-yl}-3-(6-cyclopentyloxy-pyridin-3-yl)-urea]	65	651
CCO/N=C/c1c(N)ncnc1N1CCC(OC(=O)Nc2ccc(OC(C)C)cc2)CC1 [Number 2, (4-Isopropoxy-phenyl)-carbamic acid 1-[6-amino-5-(ethoxyimino-methyl)-pyrimidin-4-yl]-piperidin-4-yl ester]	55	135
CO/N=C/c1c(N)ncnc1N1CCC(NC(=O)Nc2ccc(Oc3ccccc3)cc2)CC1 [Number 26, 1-{1-[6-Amino-5-(methoxyimino-methyl)-pyrimidin-4-yl]-piperidin-4-yl}-3-(4-phenoxy-phenyl)-urea]	20	856
